From ChEMBL document CHEMBL1201862, “PubChem BioAssay data set” (2004)
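Interpolation was linear, between the two tested concentrations surrounding the appropriate level; five concentrations were tested over 48 hours in 96-well plates. At the GI50, growth is halved.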 Calls of active or inactive are those of the source. Cut-off read from the data, not from the text of the source: active = GI50 up to about 1.1 µM and inactive = higher.

How the values were obtained:
Experiment in all cases: NCI-60 cell line screen, 48 h
OVCAR-4 = test system: OVCAR-4
SNB-19 = test system: SNB-19
UO-31 = test system: UO-31
IGROV-1 = test system: IGROV-1
PC-3 = test system: PC-3
NCI/ADR-RES = test system: NCI/ADR-RES
COLO 205 = test system: COLO 205
SNB-75 = test system: SNB-75
U-251 = test system: U-251
ACHN = test system: ACHN
SF-268 = test system: SF-268
EKVX = test system: EKVX
HOP-92 = test system: HOP-92
SW-620 = test system: SW-620
NCI-H460 = test system: NCI-H460
OVCAR-5 = test system: OVCAR-5
TK-10 = test system: TK-10
HOP-62 = test system: HOP-62
SK-OV-3 = test system: SK-OV-3
DU-145 = test system: DU-145

SMILES | GI50 (OVCAR-4) | GI50 (SNB-19) | GI50 (UO-31) | GI50 (IGROV-1) | GI50 (PC-3) | GI50 (NCI/ADR-RES) | GI50 (COLO 205) | GI50 (SNB-75) | GI50 (U-251) | GI50 (ACHN) | GI50 (SF-268) | GI50 (EKVX) | GI50 (HOP-92) | GI50 (SW-620) | GI50 (NCI-H460) | GI50 (OVCAR-5) | GI50 (TK-10) | GI50 (HOP-62) | GI50 (SK-OV-3) | GI50 (DU-145)
COc1cc(/C=C/C2=NN(c3cccc(S(=O)(=O)O)c3)C3(C2)C(Cl)C(=O)N3c2nc3ccccc3s2)ccc1O (stereo not given) | 16.1 µM (inactive) | 65.9 µM (inactive) | 16.9 µM (inactive) | 13.7 µM (inactive) | 25.6 µM (inactive) | 27.4 µM (inactive) | 18.5 µM (inactive) | 21.7 µM (inactive) | 18 µM (inactive) | 16.7 µM (inactive) | 23.8 µM (inactive) | 20.3 µM (inactive) | 13.2 µM (inactive) | 21.1 µM (inactive) | 32.7 µM (inactive) | 20.2 µM (inactive) | 14.8 µM (inactive) | – | – | –
O=C(Nc1cccc(F)c1)c1cc2ccc(O)cc2o/c1=N\c1ccccc1F | 3.56 µM (inactive) | 5.31 µM (inactive) | 4 µM (inactive) | 2.96 µM (inactive) | 8.85 µM (inactive) | 2.9 µM (inactive) | 21.1 µM (inactive) | – | 3.21 µM (inactive) | 3.34 µM (inactive) | 2.74 µM (inactive) | 2.18 µM (inactive) | – | 4.7 µM (inactive) | 3.15 µM (inactive) | 17.2 µM (inactive) | – | 8.89 µM (inactive) | 5.36 µM (inactive) | 4.28 µM (inactive)
CC(=O)OCC1C(C(C)OC(C)=O)CCC2C1CCC1(C)C(OC(C)=O)CCC21 (stereo not given) | 19.8 µM (inactive) | 20.4 µM (inactive) | 61.9 µM (inactive) | 20 µM (inactive) | – | 17 µM (inactive) | – | – | 16.6 µM (inactive) | 14.8 µM (inactive) | 23.9 µM (inactive) | 15.6 µM (inactive) | 17.9 µM (inactive) | 17.9 µM (inactive) | 16.9 µM (inactive) | 54.6 µM (inactive) | > 100 µM (inactive) | 21.5 µM (inactive) | – | 83.9 µM (inactive)
C/C(=C\CO)CC/C=C(\C)CNc1ccccc1 | – | 62.5 µM (inactive) | 38.1 µM (inactive) | > 100 µM (inactive) | 28.8 µM (inactive) | 40.4 µM (inactive) | 41.2 µM (inactive) | 0.0498 µM (active) | 59.4 µM (inactive) | > 100 µM (inactive) | 73.1 µM (inactive) | 23.9 µM (inactive) | – | 50.2 µM (inactive) | > 100 µM (inactive) | > 100 µM (inactive) | 20.5 µM (inactive) | > 100 µM (inactive) | > 100 µM (inactive) | 37.8 µM (inactive)
COc1cc(/C=C2\C(=O)N(c3cccc(Cl)c3)C(c3ccccc3)S2(=O)=O)cc(OC)c1OC (stereo not given) | 85.5 µM (inactive) | 23.7 µM (inactive) | 32.3 µM (inactive) | – | – | 38.1 µM (inactive) | > 100 µM (inactive) | – | 73.8 µM (inactive) | 76.7 µM (inactive) | 55.8 µM (inactive) | > 100 µM (inactive) | 30.6 µM (inactive) | 59.7 µM (inactive) | > 100 µM (inactive) | > 100 µM (inactive) | > 100 µM (inactive) | 85.7 µM (inactive) | 58.1 µM (inactive) | > 100 µM (inactive)
C(/C=N/N=C1NCCN1)=N\N=C1NCCN1 | > 100 µM (inactive) | > 100 µM (inactive) | > 100 µM (inactive) | > 100 µM (inactive) | > 100 µM (inactive) | > 100 µM (inactive) | > 100 µM (inactive) | 47.3 µM (inactive) | > 100 µM (inactive) | > 100 µM (inactive) | > 100 µM (inactive) | > 100 µM (inactive) | > 100 µM (inactive) | > 100 µM (inactive) | > 100 µM (inactive) | > 100 µM (inactive) | – | > 100 µM (inactive) | > 100 µM (inactive) | –
O=C(NNC(=S)NC1CCCCC1)c1csc(NC(=S)NC2CCCCC2)n1 | – | 12 µM (inactive) | 0.948 µM (active) | 3.52 µM (inactive) | 10.9 µM (inactive) | 2.74 µM (inactive) | 3.22 µM (inactive) | > 10 µM (inactive) | 5.73 µM (inactive) | 3.54 µM (inactive) | 6.21 µM (inactive) | > 100 µM (inactive) | – | 5.13 µM (inactive) | – | 12.8 µM (inactive) | 6.38 µM (inactive) | 12.4 µM (inactive) | 11.7 µM (inactive) | 14.9 µM (inactive)
N=C(N)NS(=O)(=O)c1ccc(NC(=O)c2cccc3c(Nc4ccc(S(=O)(=O)N=C(N)N)cc4)c4ccc(Cl)cc4nc23)cc1 | 80 µM (inactive) | 48.4 µM (inactive) | 50.8 µM (inactive) | 74.8 µM (inactive) | – | – | 47.2 µM (inactive) | 30.8 µM (inactive) | 37.2 µM (inactive) | 49.7 µM (inactive) | 48.4 µM (inactive) | 96.8 µM (inactive) | 32.7 µM (inactive) | 62.4 µM (inactive) | 76.2 µM (inactive) | > 100 µM (inactive) | > 100 µM (inactive) | 58.6 µM (inactive) | 32.1 µM (inactive) | –
CN(C)CCCN1N=Nc2cccc3cccc1c23 | 20.3 µM (inactive) | > 100 µM (inactive) | > 64.6 µM (inactive) | > 100 µM (inactive) | – | – | 34.6 µM (inactive) | > 100 µM (inactive) | > 74.3 µM (inactive) | 56.1 µM (inactive) | > 85.9 µM (inactive) | > 100 µM (inactive) | 90.6 µM (inactive) | 24.3 µM (inactive) | 33.1 µM (inactive) | > 91.4 µM (inactive) | > 100 µM (inactive) | > 100 µM (inactive) | > 100 µM (inactive) | –
O=C(/C=C/c1cccc(Br)c1)c1cccs1 | 16.5 µM (inactive) | 14.2 µM (inactive) | 13 µM (inactive) | 17.1 µM (inactive) | 17.5 µM (inactive) | 23.6 µM (inactive) | 21 µM (inactive) | 14.6 µM (inactive) | 13.9 µM (inactive) | 20.1 µM (inactive) | 19.6 µM (inactive) | 18.5 µM (inactive) | – | 9.35 µM (inactive) | 16.2 µM (inactive) | – | 16.4 µM (inactive) | 26 µM (inactive) | 23.8 µM (inactive) | > 10 µM (inactive)
O=C(O)[C@@H]1CSCN1C(=O)[C@@H]1CCC(=S)N1 | – | > 100 µM (inactive) | > 100 µM (inactive) | > 100 µM (inactive) | > 100 µM (inactive) | > 100 µM (inactive) | – | > 100 µM (inactive) | – | > 100 µM (inactive) | > 100 µM (inactive) | – | – | > 100 µM (inactive) | > 100 µM (inactive) | > 100 µM (inactive) | > 100 µM (inactive) | > 100 µM (inactive) | > 100 µM (inactive) | > 100 µM (inactive)
C[N+](C)(CCNc1ccc(NCC[N+](C)(C)Cc2ccc([N+](=O)[O-])cc2)c2c1C(=O)c1c(O)ccc(O)c1C2=O)Cc1ccc([N+](=O)[O-])cc1 | > 50 µM (inactive) | – | 20.4 µM (inactive) | > 50 µM (inactive) | 37.8 µM (inactive) | > 50 µM (inactive) | 18.7 µM (inactive) | > 50 µM (inactive) | > 50 µM (inactive) | > 50 µM (inactive) | > 50 µM (inactive) | > 50 µM (inactive) | – | > 50 µM (inactive) | 3.2 µM (inactive) | > 50 µM (inactive) | > 50 µM (inactive) | > 50 µM (inactive) | > 50 µM (inactive) | 25.5 µM (inactive)
COc1ccc2c(=O)c(-c3cc(OC)c(OC)cc3OC)coc2c1 | > 100 µM (inactive) | 15.3 µM (inactive) | 34 µM (inactive) | 19.2 µM (inactive) | 4.16 µM (inactive) | – | 3.32 µM (inactive) | 2.26 µM (inactive) | 2.19 µM (inactive) | > 82.8 µM (inactive) | 4.73 µM (inactive) | 36.1 µM (inactive) | 1.81 µM (inactive) | 2.33 µM (inactive) | 2.48 µM (inactive) | > 100 µM (inactive) | 31.5 µM (inactive) | 3.72 µM (inactive) | 3.02 µM (inactive) | 2.86 µM (inactive)
CSc1ccc2c(cc1=O)[C@@H](NC(=O)c1ccc(F)cc1)CCc1cc(O)c(O)c(O)c1-2 | > 100 µM (inactive) | > 100 µM (inactive) | > 100 µM (inactive) | > 100 µM (inactive) | – | – | > 100 µM (inactive) | > 100 µM (inactive) | > 100 µM (inactive) | > 100 µM (inactive) | > 100 µM (inactive) | > 100 µM (inactive) | 84.9 µM (inactive) | > 100 µM (inactive) | > 100 µM (inactive) | > 100 µM (inactive) | > 100 µM (inactive) | > 100 µM (inactive) | > 100 µM (inactive) | –
CC(=O)O[C@H]1C[C@H](O[C@H]2[C@@H](O)C[C@H](O[C@H]3[C@@H](O)C[C@H](O[C@H]4CC[C@@]5(C)[C@H](CC[C@@H]6[C@@H]5C[C@@H](O)[C@]5(C)[C@@H](C7=CC(=O)OC7)CC[C@]65O)C4)O[C@@H]3C)O[C@@H]2C)O[C@H](C)[C@H]1O[C@@H]1O[C@H](CO)[C@@H](O)[C@H](O)[C@H]1O [LANATOSIDE C] | 0.0465 µM (active) | 0.168 µM (active) | 0.0559 µM (active) | 0.0435 µM (active) | – | 0.0364 µM (active) | 0.136 µM (active) | 0.167 µM (active) | 0.0741 µM (active) | 0.0283 µM (active) | 0.0436 µM (active) | 0.0284 µM (active) | 0.122 µM (active) | 0.0536 µM (active) | 0.0138 µM (active) | 0.0869 µM (active) | 0.0454 µM (active) | 0.0264 µM (active) | 0.0597 µM (active) | 0.0313 µM (active)
